This is an account of results in patent US6043248A, “Alpha-substituted pyrimidine-thioalkyl and alkylether compounds as inhibitors of viral reverse transcriptase” (priority 1997, dated 2000).

Assay [1] concerns the target T1, P236L viral reverse transcriptase (Human immunodeficiency virus type 1 group M subtype B, UniProt P04585, P823L).
T1 construct: P236L viral reverse transcriptase is obtained by PNAS 90: 4713-4717 (1993); made in house
Description: inhibition of viral reverse transcriptase (P236L), cell free assay. It counts as biochemical. The conditions noted are these: IC50 (Table I, P236L), 30 minutes at 37° C. The method, boiled down:
(§1)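 E. coli-expressed wild-type or P236L RT extracts incubated with inhibitor 30 min at 37 °C in Tris pH 8.3 with MgCl₂, NaCl, DTT, NP-40, 10 μM [35S]-dNTP, poly rC/rG template and oligo dG/dT primer. Incorporated label counted on DE81 paper; reported as % inhibition and/or IC50.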

Assay [2] deals with T2, viral reverse transcriptase (Wild Type) (Human immunodeficiency virus type 1 group M subtype B, UniProt P04585).
T2 construct: Viral reverse transcriptase (Wild Type) is found in extracts from bacterial clones; made in house; host or cells: Escherichia coli
Briefly: inhibition of viral reverse transcriptase (Wild Type), cell free assay. It counts as biochemical. The conditions noted are these: for IC50: 30 minutes at 37° C., read-out: IC50 (Table II, Wild Type). In a few lines:
as §1

As a reminder, the IC50 is the concentration that inhibits the measured activity by half. Consider `C[C@H](Sc1nc(N)cc(Cl)n1)c1cc2ccoc2cn1` [Example 299, (S)-(-)-4-Amino-6-chloro-2-(1-(furo[2,3c]pyridin-5-yl)ethylthio)-pyrimidine], for which the IC50 turned out to be 22 nM in assay [1] and 20 nM in assay [2].

The inhibition is the change of the read-out against control, counted positive when it falls. `CC(C)(C)c1ccnc(CSc2nc(N)cc(C(F)(F)F)n2)c1` [Example 273, 4-amino-6-trifluoromethyl-2-((4-(1,1-dimethylethyl)2-pyridyl)methyl)-thio-pyrimidine] displayed an IC50 in assay [1] of 100 nM. Moreover, the inhibition at 1 µM in assay [2] (@ 1 μM) is 75%.

In assay [1], `CN1CCN(C(=O)/C=C/CSc2nc(N)cc(Cl)n2)CC1` [Example 195, (E)-4-methyl-1-[4-[(4-amino-6-chloro-2-pyrimidinyl)thio]-1-oxo-2-butenyl]piperazine] had an IC50 of 50000 nM. The compound also registered an inhibition at 50 µM in assay [2] (@ 50 μM) of 40%.

For the compound `CC(Sc1nc(N)cc(Cl)n1)c1cc2c(cn1)CCCC2` (centres unmarked) [Example 233, 4-Amino-6-chloro-2-(1-(3-(5,6,7,8-tetrahydroisoquinolyl))ethyl)thiopyrimidine], the IC50 in assay [1] is 68 nM; in assay [2], 67 nM.

With `CC(Sc1nc(N)cc(Cl)n1)c1cc2c(C(F)(F)F)coc2c(Cl)n1` (centres unmarked) [Example 293], the IC50 in assay [1] came out at 190 nM; in assay [2], 345 nM.

In the case of `CCc1ccnc(C(C)Sc2nc(N)cc(Cl)n2)c1` (centres unmarked) [Example 216, 4-Amino-6-chloro-2-(1-(4-ethyl-2-pyridyl)ethyl)thio-pyrimidine], the IC50 came out at 30 nM in assay [1] and 27 nM in assay [2].

Consider `CC(C)c1ccnc(C(C)Sc2nc(N)cc(C(F)(F)F)n2)c1` (centres unmarked) [Example 272, 4-amino-6-trifluoromethyl-2-(1-(4-(1-methylethyl)2-pyridyl)ethyl)thio-pyrimidine], for which the IC50 in assay [1] is 160 nM; in assay [2], 112 nM.
